Measurements reported in patent publication US4446141A, “Hypotensive piperidine derivatives” (priority 1978, dated 1984).
Counter-ions that a name gives are not always drawn. Like-named read-outs stand apart in the source and are kept apart here.

Assays:
male dd-strain mice = conditions: mouse, in vivo
blood pressure [1] = assay: Experiment 3 Hypotensive action (maximum reduction in blood pressure); format: in vivo, Wistar-strain rats; conditions: read-out: BP: Reduction of blood pressure
blood pressure [2] = assay: Experiment 6 Dosage-reaction curve, spontaneously hypertensive rats; format: in vivo; conditions: SHR, 50 mg/kg oral; average of five rats
From the text: (§1) Experiment 6 Dosage-reaction curve: compared with betanidin
(§2) Five spontaneously hypertensive rats (16 weeks old) and five DOCA-sodium chloride loaded hypertensive rats (having been bred for 5 weeks after removing one kidney) were respectively used as one group.
(§3) As the test compounds, Compound 1 and betanidin sulfate, which is a known hypotensive agent, were used.
(§4) The test compounds were respectively dissolved in 0.3% (w/v) CMC aqueous solution and each of the resulting solutions was orally administered to the rats in a dose of 1 ml/100 g. The amounts of the solutions administered were equal per unit weight of rats and the concentrations thereof were varied according to the doses of the compounds indicated in Table 8. The maximum reduction in blood pressure after the administration was measured according to the method of tail artery plethysmography.

blood pressure [3] = assay: Experiment 6 Dosage-reaction curve, DOCA-NaCl loaded hypertensive rats; format: in vivo, DOCA-sodium chloride loaded hypertensive rats; conditions: average of five rats
From the text: as §1, §2, §3, §4

[4] = maximum reduction, oral, 5 mg per 100 g rat weight

SMILES | Number of Death I.P. (male dd-strain mice) | Number of Death P.O. (male dd-strain mice) | inhibition in vivo at 50 mg/kg (blood pressure [1]; Rattus norvegicus, po) [%] | inhibition in vivo at 50 mg/kg (blood pressure [1]; [4]) [%] | maximum reduction in blood pressure (blood pressure [2]) [mmHg] | maximum reduction in blood pressure (blood pressure [3]; 1.0 mg/kg oral) [mmHg] | maximum reduction in blood pressure (blood pressure [3]; 10 mg/kg oral) [mmHg] | maximum reduction in blood pressure (blood pressure [3]; 50 mg/kg oral) [mmHg]
COc1ccc(C(OC(C)=O)C(C)N2CCC(n3c(=O)[nH]c4ccccc43)CC2)cc1OC (stereo not shown) [Compound 34, 1-[3-acetoxy-3-(3,4-dimethoxyphenyl)-2-propyl]-4-(2-keto-1-benzimidazolinyl)-piperidine] | 0 | 0 | > 11 |  |  |  |  | 
CCOC(=O)n1c(=O)n(C2CCN(CC(=O)c3ccc(OC)c(OC)c3)CC2)c2ccccc21 [Compound 35, 1-[2-oxo-2-(3,4-dimethoxyphenyl)-1-ethyl]-4-(2-keto-3-ethoxycarbonyl-1-benzimidazolinyl)-piperidine] | 0 | 0 |  | > 11 |  |  |  | 
CCOc1nc2ccccc2n1C1CCN(CC(O)c2ccc3c(c2)OCO3)CC1 (stereo not shown) [Compound 11, 1-[2-hydroxy-2-(3,4-methylenedioxyphenyl)-1-ethyl]-4-(2-ethoxy-1-benzimidazolinyl)-piperidine] | 0 | 0 |  | 6 to 10 |  |  |  | 
O=c1[nH]c2ccccc2n1C1=CCN(CCc2ccc3c(c2)OCO3)CC1 [Compound 12, 1-[2-(3,4-methylenedioxyphenyl)-1-ethyl]-4-(2-keto-1-benzimidazolinyl)-1,2,5,6-tetrahydropyridine] | 0 | 0 |  | 6 to 10 |  |  |  | 
COc1ccc(C(OC(C)=O)C(C)N2CCC(n3c(=O)n(C(C)=O)c4ccccc43)CC2)cc1OC (stereo not shown) [Compound 32, 1-[3-acetoxy-3-(3,4-dimethoxyphenyl)-2-propyl]-4-(3-acetyl-2-keto-1-benzimidazolinyl)-piperidine] | 0 | 0 |  | > 11 |  |  |  | 
CN=C(NC)NCc1ccccc1 [Betanidin sulfate, betanidin sulfate] |  |  |  |  | -40 | -25 | -34 | -58
